Assay results from ChEMBL document CHEMBL3860056, “In vitro and in vivo inhibitory activity of 6-amino-2,4,5-trimethylpyridin-3-ols against inflammatory bowel disease” (Bioorg Med Chem Lett, 2016).

Legend:
[1] = (§1) Antiinflammatory activity in human HT-29 cells assessed as inhibition of TNF-alpha induced BCECF-AM labeled human U937 cell adhesion at 1 uM preincubated for 1 hr followed by stimulation with TNF-alpha for 3 hrs followed by further co-incubation with BCECF-AM labeled human U937 cells for 1 hr by fluorescent/light microscopic analysis; type: functional
[2] = as §1, with “adhesion” for “adhesion at 1 uM”; type: functional, cell-based
Rattus norvegicus [3] = test: Antiinflammatory activity in TNBS-induced Sprague-Dawley rat colitis model assessed as body weight recovery at 0.1 mg/kg/day, po administered for 5 days post 1 day of TNBS-challenge measured daily during compound dosing relative to control; type: functional
Rattus norvegicus [4] = test: Antiinflammatory activity in TNBS-induced Sprague-Dawley rat colitis model assessed as body weight recovery at 1 mg/kg/day, po administered for 5 days post 1 day of TNBS-challenge measured daily during compound dosing relative to control; type: functional
Rattus norvegicus [5] = test: Antiinflammatory activity in TNBS-induced Sprague-Dawley rat colitis model assessed as body weight recovery at 10 mg/kg/day, po administered for 5 days post 1 day of TNBS-challenge measured daily during compound dosing relative to control; type: functional
Rattus norvegicus [6] = test: Antiinflammatory activity in po dosed TNBS-induced Sprague-Dawley rat colitis model assessed as body weight recovery compound administered for 5 days post 1 day of TNBS-challenge measured daily during compound dosing; type: functional, organism-based
Rattus norvegicus [7] = test: Antiinflammatory activity in TNBS-induced Sprague-Dawley rat colitis model assessed as colon weight recovery at 0.1 mg/kg/day, po administered for 5 days post 1 day of TNBS-challenge relative to control; type: functional
Rattus norvegicus [8] = test: Antiinflammatory activity in TNBS-induced Sprague-Dawley rat colitis model assessed as colon weight recovery at 1 mg/kg/day, po administered for 5 days post 1 day of TNBS-challenge relative to control; type: functional
Rattus norvegicus [9] = test: Antiinflammatory activity in TNBS-induced Sprague-Dawley rat colitis model assessed as colon weight recovery at 10 mg/kg/day, po administered for 5 days post 1 day of TNBS-challenge relative to control; type: functional
Rattus norvegicus [10] = test: Antiinflammatory activity in po dosed TNBS-induced Sprague-Dawley rat colitis model assessed as reduction in colon edema and adhesion administered for 5 days post 1 day of TNBS-challenge by microscopic analysis; type: functional, organism-based
Rattus norvegicus [11] = test: Antiinflammatory activity in po dosed TNBS-induced Sprague-Dawley rat colitis model assessed as recovery of increase in colon wet weight administered for 5 days post 1 day of TNBS-challenge; type: functional, organism-based
Rattus norvegicus [12] = test: Antiinflammatory activity in TNBS-induced Sprague-Dawley rat colitis model assessed as inhibition of myeloperoxidase level in colon at 0.1 mg/kg/day, po administered for 5 days post 1 day of TNBS-challenge by colorimetric method relative to control; type: functional
Rattus norvegicus [13] = test: Antiinflammatory activity in TNBS-induced Sprague-Dawley rat colitis model assessed as inhibition of myeloperoxidase level in colon at 1 mg/kg/day, po administered for 5 days post 1 day of TNBS-challenge by colorimetric method relative to control; type: functional
Rattus norvegicus [14] = test: Antiinflammatory activity in TNBS-induced Sprague-Dawley rat colitis model assessed as inhibition of myeloperoxidase level in colon at 10 mg/kg/day, po administered for 5 days post 1 day of TNBS-challenge by colorimetric method relative to control; type: functional
Rattus norvegicus [15] = organism: Rattus norvegicus; test: Potency index, ratio of compound efficacy to sulfasalazine efficacy in TNBS-induced Sprague-Dawley rat colitis model assessed as body weight recovery; type: functional
Rattus norvegicus [16] = organism: Rattus norvegicus; test: Potency index, ratio of compound efficacy to sulfasalazine efficacy in TNBS-induced Sprague-Dawley rat colitis model assessed as colon weight recovery; type: functional
Rattus norvegicus [17] = organism: Rattus norvegicus; test: Potency index, ratio of compound efficacy to sulfasalazine efficacy in TNBS-induced Sprague-Dawley rat colitis model assessed as inhibition of MPO level in colon; type: functional
Rattus norvegicus [18] = test: Antiinflammatory activity in TNBS-induced Sprague-Dawley rat colitis model assessed as body weight recovery at 300 mg/kg/day, po administered for 5 days post 1 day of TNBS-challenge measured daily during compound dosing relative to control; type: functional
Rattus norvegicus [19] = test: Antiinflammatory activity in TNBS-induced Sprague-Dawley rat colitis model assessed as colon weight recovery at 300 mg/kg/day, po administered for 5 days post 1 day of TNBS-challenge relative to control; type: functional
Rattus norvegicus [20] = test: Antiinflammatory activity in TNBS-induced Sprague-Dawley rat colitis model assessed as inhibition of myeloperoxidase level in colon at 300 mg/kg/day, po administered for 5 days post 1 day of TNBS-challenge by colorimetric method relative to control; type: functional
[21] = as §1, with “20 mM” for “1 uM”; type: functional

Compound | inhibition at 1 µM [1] [%] | further results
Cc1nc(Nc2ccc(Cl)cc2)c(C)c(C)c1O | 28.4 | 
Cc1cccc(N(C)c2nc(C)c(O)c(C)c2C)c1 | 63.2 | 
Cc1nc(N2CCCCC2)c(C)c(C)c1O | 47.9 | 
CCCCCCCCCCCCCCCCNc1nc(C)c(O)c(C)c1C | 26.9 | 
Cc1nc(N)c(C)c(C)c1O | 22.9 | 
Cc1nc(N(C)c2ccc(Cl)cc2)c(C)c(C)c1O | 65.2 | 
Cc1nc(NC2CCCCC2)c(C)c(C)c1O | 36 | 
Cc1nc(N(c2ccccc2)c2ccccc2)c(C)c(C)c1O | 41.3 | 
Cc1nc(Nc2cccc(OC(C)C)c2)c(C)c(C)c1O | 24.9 | 
Cc1nc(Nc2cccc(Br)c2)c(C)c(C)c1O | 20.5 | 
Cc1nc(Nc2ccccc2)c(C)c(C)c1O | 73.6 | 
Cc1nc(Nc2ccc3c(c2)OCO3)c(C)c(C)c1O | 26.5 | 
CCCCCCCCCCc1ccc(Nc2nc(C)c(O)c(C)c2C)cc1 | 76.6 | 
CCCCCCNc1nc(C)c(O)c(C)c1C | 28.4 | 
Cc1nc(NC2CCCC2)c(C)c(C)c1O | 73.3 | 
Cc1nc(Nc2ccc([N+](=O)[O-])cc2)c(C)c(C)c1O | 39 | 
Cc1nc(N(c2ccccc2)c2ccc3ccccc3c2)c(C)c(C)c1O | 13.4 | 
Cc1nc(Nc2cccc([N+](=O)[O-])c2)c(C)c(C)c1O | 18.5 | 
Cc1nc(Nc2ccc(Br)cc2)c(C)c(C)c1O | 47.2 | 
Cc1nc(Nc2cccc3ccccc23)c(C)c(C)c1O | 52.4 | 
Cc1nc(N(C)c2ccc(F)cc2)c(C)c(C)c1O | 77.2 | 
Cc1nc(Nc2cccc(F)c2)c(C)c(C)c1O | 16.3 | 
Cc1nc(N2CCCC2)c(C)c(C)c1O | 36.7 | 

Compound | inhibition at 1 µM [1] [%] | further results
Cc1ccc(N(C)c2nc(C)c(O)c(C)c2C)cc1 | 67.4 | 
Cc1nc(NCc2ccccc2)c(C)c(C)c1O | 35.7 | 
COc1ccc(Nc2nc(C)c(O)c(C)c2C)cc1 | 14 | 
Cc1nc(N2CCN(C)CC2)c(C)c(C)c1O | 47.6 | 
Cc1nc(-n2cccc2)c(C)c(C)c1O | 56.1 | 
Cc1nc(Nc2ccc(C(C)(C)C)cc2)c(C)c(C)c1O | 27.3 | 
Cc1cccc(Nc2nc(C)c(O)c(C)c2C)c1 | 74 | 
CCCc1ccc(Nc2nc(C)c(O)c(C)c2C)cc1 | 77.9 | IC50 [2]: 0.00019 mM; Activity (Rattus norvegicus [3]): 47.2%; Activity (Rattus norvegicus [4]): 58.3%; Activity (Rattus norvegicus [5]): 69.9%; Activity (Rattus norvegicus [6]): Dose-dependent effect; Activity (Rattus norvegicus [7]): 56.6%; Activity (Rattus norvegicus [8]): 72.6%; Activity (Rattus norvegicus [9]): 88.6%; Activity (Rattus norvegicus [10]): Dose-dependent effect; Activity (Rattus norvegicus [11]): Dose-dependent effect; inhibition in vivo at 0.1 mg/kg/day (Rattus norvegicus [12]): 55.4%; inhibition in vivo at 1 mg/kg/day (Rattus norvegicus [13]): 79.9%; inhibition in vivo at 10 mg/kg/day (Rattus norvegicus [14]): 96.3%; Ratio (Rattus norvegicus [15]): >300; Ratio (Rattus norvegicus [16]): >300; Ratio (Rattus norvegicus [17]): >300
Cc1nc(Nc2ccc(F)cc2)c(C)c(C)c1O | 71.5 | 
Cc1ccc(Nc2nc(C)c(O)c(C)c2C)cc1 | 84.4 | 
Cc1nc(Nc2cccc(Cl)c2)c(C)c(C)c1O | 42.5 | 
Cc1nc(Nc2ccccc2C(C)C)c(C)c(C)c1O | 37.8 | 
Cc1nc(N(C)c2ccccc2)c(C)c(C)c1O | 58.1 | 
Cc1nc(NCc2ccc(C(C)(C)C)cc2)c(C)c(C)c1O | 49.2 | 
Cc1nc(NCc2ccc(-c3ccccc3)cc2)c(C)c(C)c1O | 1.3 | 
O=C(O)c1cc(/N=N/c2ccc(S(=O)(=O)Nc3ccccn3)cc2)ccc1O [SULFASALAZINE] |  | Activity (Rattus norvegicus [18]): 55.6%; Activity (Rattus norvegicus [19]): 67.1%; inhibition in vivo at 300 mg/kg/day (Rattus norvegicus [20]): 58.6%
Cc1nc(NCCCO)c(C)c(C)c1O | 19 | 
Cc1nc(Nc2ccc(Oc3ccccc3)cc2)c(C)c(C)c1O | 17.3 | 
Cc1nc(N2CCOCC2)c(C)c(C)c1O | 67.7 | 
Cc1nc(N2CCC(C(O)(c3ccccc3)c3ccccc3)CC2)c(C)c(C)c1O | -7 | 
Nc1cccc2c1CN(C1CCC(=O)NC1=O)C2=O (stereo not given) [LENALIDOMIDE] | 64.6 | 
Nc1ccc(O)c(C(=O)O)c1 [MESALAMINE] | 3.8 | inhibition at 20000 µM [21]: 52.7%; IC50 [2]: 18.1 mM
